Here are results for 4 molecules from patent US8507545B2, “Cytotoxic T cell activator comprising EP4 agonist” (National University Corporation, Hamamatsu University …, priority 2007, dated 2013).

In experiment [1] the test system is TRP-2-specific CTLs. Put plainly: Activation of cytotoxic T cells in cervical lymph nodes after tape stripping (TRP-2 tetramer flow cytometry). The experiment is classed as in vivo, C57BL/6(B6) mice. To be noted: relative to total mononucleocytes as 100. As to the method:
(§1) The corneal layers of the auricles of C57BL/6(B6) mice were destroyed by repeating a stripping procedure using an adhesive tape in 10 cycles, and an antigen peptide or EP4 agonist was applied as a test substance. The antigen peptide used was a melanoma-specific antigen peptide (Accord K.K. Peptide Business Department; hereinafter abbreviated TRP-2) in solution in 70% ethanol; 10 μg was applied to one side of each auricle. The EP4 agonist used was 11α,15α,-dihydroxy-9-oxo-16-(3-methoxymethylphenyl)-17,18,19,20-tetranol-3,7-dithiaprost-13E-enoic acid (hereinafter abbreviated Compound A-(1)) in solution in a mixed solvent of acetone:olive oil=10:1; 20 μL of 100 μM solution was applied to one side of each auricle. One week after application of the test substance, the cervical lymph nodes were removed. The frequency of TRP-2-specific CTLs was determined relative to the total number of mononucleocytes in the cervical lymph nodes as 100 by a flowcytometric analysis (FACScaliber; Becton, Dickinson and Company.) with a tetramer (Medical & Biological Laboratories Co., Ltd.). Four experimental groups were established: (1) a group undergoing tape stripping (hereinafter abbreviated TS) alone, (2) a group undergoing TS followed by application of TRP-2, (3) a group undergoing TS followed by application of Compound A-(1), and (4) a group undergoing TS followed by application of TRP-2 and Compound A-(1).
Note that the melanoma-specific antigen peptide TRP-2 was synthesized on the basis of a partial sequence described in the aforementioned Non-patent Document 1 (SEQ ID NO. 1) (Accord K.K. Peptide Business Department).
The same procedures as Example 1(1) were followed except that the EP4 agonists used were 4-[(2-{(2R)-2-[(1E,3S)-4-(4-fluorophenyl)-3-hydroxybut-1-enyl]-5-oxopyrrolidin-1-yl}ethyl)sulfanyl]butanoic acid (hereinafter abbreviated Compound L-(1)) and 4-{[2-((1R,2R,3R)-3-hydroxy-2-{(1E,3S)-3-hydroxy-4-[3-(methoxymethyl)phenyl]but-1-enyl}-5-oxocyclopentyl)ethyl]sulfanyl}butanoic acid (hereinafter abbreviated Compound M-(1)); the action of each compound to activate cytotoxic T cells was evaluated. Four experimental groups were established: (1) a group undergoing TS alone, (2) a group undergoing TS followed by application of TRP-2, (3) a group undergoing TS followed by application of TRP-2 and Compound L-(1), and (4) a group undergoing TS followed by application of TRP-2 and Compound M-(1).
Background: In flow cytometry, cells or beads pass a laser one at a time.

The test system of the next experiment is HSVgpB-specific CTLs. Put plainly: Activation of cytotoxic T cells in cervical lymph nodes after tape stripping (HSVgpB pentamer flow cytometry). The experiment is classed as in vivo, C57BL/6(B6) mice. To be noted: Example 1(3). As to the method:
as §1
The same procedures as Example 1(1) were followed except that the antigen peptide used was the herpes simplex virus-specific antigen HSV glycoprotein B (hereinafter abbreviated HSVgpB), and that a flowcytometric analysis with a pentamer (ProImmune Company) was performed, and the action of each compound to activate cytotoxic T cells was evaluated. Five experimental groups were established: (1) a group undergoing TS alone, (2) a group undergoing TS followed by application of HSVgpB, (3) a group undergoing TS followed by application of HSVgpB and Compound A-(1), (4) a group undergoing TS followed by application of HSVgpB and Compound L-(1), and (5) a group undergoing TS followed by application of HSVgpB and Compound M-(1).
Note that the herpes simplex virus-specific antigen peptide HSVgpB was synthesized on the basis of the partial sequence shown by SEQ ID NO. 2 (Virology, Vol. 195, pp. 62-70, (1993)) (ProImmune Company).

Experiment [2] has as its system TRP-2-specific CTLs. Put plainly: Activation of cytotoxic T cells in isolated Langerhans cells co-cultured with lymphocytes. The experiment is classed as cell-based, C57BL/6(B6) mouse. As to the method: A given area of an auricle epidermal sheet was removed from the corneal layer of one auricle of each C57BL/6(B6) mouse, and trypsinized to yield an epidermal cell suspension. The epidermal cell suspension obtained was subjected to panning using an antibody specific for I-A^b antigen to isolate epidermal Langerhans cells. After each test substance (TRP-2 (concentration; 10 μg/mL) and Compound A-(1) (1 μM)) was added to the Langerhans cells isolated (cell density; 10^5 cells per mL), the cells were cultured with a medium (cRPMI1640 medium; Sigma-Aldrich Japan). Half a day later, the cells were co-cultured with splenocytic lymphocytes isolated from […] for 7 days. Subsequently, by a flowcytometric analysis (FACScaliber; Becton, Dickinson and Company.) using a tetramer (Medical & Biological Laboratories Co., Ltd.), the frequency of TRP-2-specific CTLs was determined relative to the total number of mononucleocytes in the medium as 100. Three experimental groups were established: (1) a group with no treatment, (2) a group with the addition of TRP-2, and (3) a group with the addition of both TRP-2 and Compound A-(1).

The next experiment concerns B16 melanoma cells. Description: Melanoma growth suppressing action. In kind it is in vivo, B6 mouse. As to conditions: TS followed by application of TRP-2, experimental group (2). As for the experimental part: The corneal layer was removed from the right auricle of each B6 mouse by TS in the same manner as Example 1, and test substances (TRP-2 and Compound A-(1)) were applied there; 2 weeks later, the left auricle was treated in the same manner. The test substances applied to both ears were used in the same combination; TRP-2 was applied at 10 μg for one side of each auricle, and Compound A-(1) was applied at 20 μl, of 100 μM solution for one side of each auricle. Four days after the above-described treatment, each mouse received 2×10^5 B16 melanoma cells (RIKEN's Cell Bank) by subcutaneous transplantation, and examined for tumor growth. Experimental groups were established as in Example 1(1) (5 animals in each group).
Tumor diameter (mm), as an index of tumor growth, was measured in each group at various days after inoculation of B16 melanoma cells; the results are shown in FIG. 1.

[3] abbreviates: Example 1(2), TS followed by application of TRP-2 and the EP4 agonist, cervical lymph nodes.
Setting [4] is: TS followed by application of HSVgpB and the EP4 agonist.

For `O=C(O)CCCSCCN1C(=O)CC[C@@H]1/C=C/[C@@H](O)Cc1ccc(F)cc1` [Compound L-(1), 4-[(2-{(2R)-2-[(1E,3S)-4-(4-fluorophenyl)-3-hydroxybut-1-enyl]-5-oxopyrrolidin-1-yl}ethyl)sulfanyl]butanoic acid], the “Ratio of TRP-2-specific CTLs” value in the experiment with TRP-2-specific CTLs [1] (setting [3]) stood at 1.92. The “Ratio of HSVgpB-specific CTLs” value in the experiment with HSVgpB-specific CTLs (setting [4]) is on record as 0.29.

Regarding “HSVgpB: herpes simplex virus-specific antigen peptide; Herpes Simplex Virus glycoprotein B 498-505 (SEQ ID NO. 2) (SSIEFARL; Herpes Simplex Virus glycoprotein B 498-505) [reference compound]”, the “Ratio of HSVgpB-specific CTLs” value with HSVgpB-specific CTLs (TS followed by application of HSVgpB alone) is reported as 0.25.

“TRP-2: melanoma-specific antigen peptide; tyrosinase-related protein 2 181-188, partial sequence VYDFFVWL (SEQ ID NO. 1) (Tyrosinase-related protein 2 residues 181-188) [reference compound]”: the “Ratio of TRP-2-specific CTLs” value was 0.35 in the experiment on TRP-2-specific CTLs [1] (Example 1(1), TS followed by application of the test substance alone, cervical lymph nodes one week after application); 1.28 in the experiment with TRP-2-specific CTLs [1] (Example 1(2), TS followed by application of TRP-2 alone, cervical lymph nodes); 3.2 in the experiment on TRP-2-specific CTLs [2] (addition of TRP-2 (10 μg/mL) alone, 7 days co-culture, relative to total mononucleocytes in the medium as 100). Further, the “ratio of TRP-2-specific CTLs in B6 splenocytic lymphocytes” value in the experiment on TRP-2-specific CTLs [2] (addition of TRP-2, experimental group (2)) was “increased”. The “tumor growth suppressing action compared with an EP4 agonist alone” value with B16 melanoma cells is on record as “equivalent”.

As to `COCc1cccc(C[C@H](O)/C=C/[C@H]2[C@H](O)CC(=O)[C@@H]2CCSCCCC(=O)O)c1` [Compound M-(1), 4-{[2-((1R,2R,3R)-3-hydroxy-2-{(1E,3S)-3-hydroxy-4-[3-(methoxymethyl)phenyl]but-1-enyl}-5-oxocyclopentyl)ethyl]sulfanyl}butanoic acid], the “Ratio of TRP-2-specific CTLs” value in the experiment on TRP-2-specific CTLs [1] (setting [3]) turned out to be 1.66. Moreover, the “Ratio of HSVgpB-specific CTLs” value in the experiment on HSVgpB-specific CTLs (setting [4]) is listed as 0.30.
